{"source": "patent US12643891B2", "about": "“SPAK/OSR inhibitors and methods of using same” (YALE UNIVERSITY, priority 2019, dated 2026)", "key": {"[1]": {"molecular_target": "T1, SPAK (Homo sapiens, UniProt Q9UEW8)", "T1 construct": "GST (N, cleaved yes); made in house; host or cells: E. coli EcAR7 with Sep-OTS", "experiment": "In vitro SPAK ELISA assay monitoring NKCC1 phosphorylation (T^PNKCC1 antibody)", "type": "biochemical", "conditions": "screening platform, FIG. 21; read-out: in vitro IC50"}, "[2]": {"experiment": "Formulation/tolerance test, intracranial, healthy tumor free mice", "type": "in vivo", "conditions": "100 μM in DMSO/PEG formulation, intracranially", "procedure": "FIG. 41 depicts treating healthy, tumor free, mice (ms_#) intracranially with a DMSO/PEG formulation containing vehicle or 100 μM (6a)."}, "[3]": {"test_system": "pancreatic cancer cells", "experiment": "Pancreatic cancer cell migration in vitro", "type": "cell-based", "conditions": "FIG. 36"}, "[4]": {"test_system": "PARP-1", "experiment": "PARP-1 Western blot in GBM cells", "type": "cell-based, human", "conditions": "after 24 hs", "procedure": "(§1) FIGS. 40A-40C depict that SPAK/OSR1 inhibition sensitizes GBM to radiation and decreases expression of DNA damage response genes. FIG. 40A: GBM cells were pre-treated for 24 hs with 1 μM (6a) or vehicle control and irradiated. After 72 hs, cells were re-plated to study clonogenicity. […] FIG. 40C: Expression of DNA damage response genes by RNAseq in cells treated with (6a) for 6 hs (dashed line delimits p<0.05)."}, "[5]": {"test_system": "primary human astrocytes", "experiment": "Migration of primary human astrocytes", "type": "cell-based"}, "[6]": {"test_system": "primary GBM cells", "experiment": "Nanogrooved pattern glioblastoma cell migration assay", "type": "cell-based, human", "conditions": "in vitro", "procedure": "Cell culture: All primary cell lines were derived from intraoperative tissue samples from patients treated surgically for newly diagnosed glioblastoma multiforme without prior treatment. Primary cells were cultured in Dulbecco's Modified Eagle Medium: Nutrient Mixture F-12, B27 serum free supplement (Gibco), 20 ng/mL epidermal growth factor (EGF), and 20 ng/ml fibroblast-derived growth factor (FGF).\nNanogrooved pattern cell migration assay: Migration of glioma cells was quantified using a novel directional migration assay using nano-ridges/grooves of 400 nm in groove width, 400 nm in ridge width, and 500 nm in depth, constructed of transparent poly(urethane acrylate) (PUA), and fabricated using UV-assisted capillary lithography (Kim & Eberwine, 2010, Anal. Bioanl. Chem. 397:3173-3178). Cells were cultured on glass covered with a nanogrooved pattern substratum, which was previously glued onto the bottom surface of the custom-made Mat-tek dish (P35G-20-C). […] Cell migration was quantified using time-lapse microscopy using a motorized inverted microscope (Olympus IX81) equipped with a Cascade 512B II CCD camera and temperature and gas controlling environmental chamber. Phase-contrast and epi-fluorescent cell images were automatically recorded under 4*1.6× objective using the Slidebook 4.1 (Intelligent Imaging Innovations, Denver, CO) for 10 hours at 10 minute intervals. […]"}, "[7]": {"test_system": "GBM cell lines", "experiment": "Glioblastoma cell proliferation / viability (MTT)", "type": "cell-based, human", "conditions": "FIG. 30", "procedure": "Glioblastoma cells were plated in triplicates in 96-well plates at a cell density of 10,000 cells per well and incubated with increasing concentrations of (7a) inhibitor for 72 hs. Cell viability was determined by Thiazolyl Blue Tetrazolium Bromide (MTT) assay (Sigma) according to manufacturer instructions. IC50 was determined using GraphPad software by non-linear regression analysis (log (inh) vs. normalized response)."}, "[8]": {"test_system": "GBM cells", "experiment": "Cell cycle FACS analysis of GBM cell lines", "type": "cell-based, human", "conditions": "2 μM", "procedure": "FIG. 38A: Example cell cycle FACS data for 612 cells treated with 2 μM of (6a). FIG. 38B: Cell cycle analysis of GBM cell lines treated with 2 μM of (6a)."}, "[9]": {"test_system": "GBM cell lines", "experiment": "Annexin V apoptosis assay in GBM cell lines", "type": "cell-based, human", "conditions": "1 μM, four GBM cell lines", "procedure": "FIG. 37 depicts annexin V assays performed on four GBM cell lines after 1 μM of (6a) or vehicle control."}, "[10]": {"test_system": "GBM 612, GBM120", "experiment": "Temozolomide IC50 in combination with (6a) in GBM cell lines", "type": "cell-based, human", "source_text": "FIG. 39 depicts that the IC50 values for temozolomide (TMZ) decrease 2-4 fold when used in combination (6a) in two different GBM cell lines (GBM 612, GBM120)."}, "[11]": {"test_system": "melanoma cells", "experiment": "Melanoma cell migration in vitro", "type": "cell-based", "conditions": "FIG. 35"}, "[12]": {"test_system": "GBM cells", "experiment": "Clonogenicity of GBM cells after (6a) pre-treatment and irradiation", "type": "cell-based, human", "conditions": "24 hs pre-treatment 1 μM, irradiated; 15 days after treatment", "procedure": "as §1"}, "[13]": {"test_system": "GMB intracranial xenograft", "experiment": "Human GBM intracranial xenograft mouse model", "type": "in vivo", "source_text": "FIGS. 32A-32B illustrate that (6a) reduces tumor growth in vivo in a human GMB intracranial xenograft mouse model. FIG. 32A: Schematic of the human GMB intracranial xenograft. FIG. 32B: Tumor growth profiles at two (6a) doses."}}, "data": [{"smiles": "COc1ccc(Nc2ncc(C#N)c(Nc3ccccc3C(N)=O)n2)cc1N1CCN(C)CC1", "note": "[(6a), 2-((5-cyano-2-((4-methoxy-3-(4-methylpiperazin-1-yl)phenyl)amino)pyrimidin-4-yl)amino)benzamide]", "values": [{"measurement": "IC50", "setting": "[1]", "value": "~60", "unit": "nM"}, {"measurement": "tolerance", "setting": "[2]", "value": "well tolerated"}, {"measurement": "pancreatic cancer cell migration", "setting": "[3]", "value": "reduced"}, {"measurement": "full length PARP-1 level", "setting": "[4]", "value": "decrease full length PARP-1"}, {"measurement": "activity on primary human astrocytes (migration)", "setting": "[5]", "value": "not active"}, {"measurement": "migration of primary GBM cells", "setting": "[6]", "value": "reduced migration of primary GBM cells"}, {"measurement": "proliferation and viability of primary GBM cell lines", "setting": "[7]", "value": "impedes proliferation and viability"}, {"measurement": "cell cycle arrest in GBM cells", "setting": "[8]", "value": "induces G2-M arrest"}, {"measurement": "apoptosis in GBM cell lines", "setting": "[9]", "value": "induces apoptosis"}, {"measurement": "decrease of temozolomide (TMZ) IC50 in combination with (6a)", "setting": "[10]", "value": "2-4 fold"}, {"measurement": "melanoma cell migration", "setting": "[11]", "value": "reduced melanoma cell migration"}, {"measurement": "clonogenic potential after irradiation", "setting": "[12]", "value": "lowest in the combination treatment"}, {"measurement": "overall survival", "setting": "[13]", "value": "extended overall survival"}, {"measurement": "tumor growth", "setting": "[13]", "value": "reduction in tumor growth"}, {"measurement": "tumor volume", "setting": "[13]", "value": "reduced tumor volume"}]}]}
